The experiment has as its target T1, Full-length USP19 (Homo sapiens, UniProt O94966).
T1 construct: Full-length USP19 was purchased from Boston Biochem (E-576); purchased Boston Biochem E-576
T1 sequence (O94966 1-1318): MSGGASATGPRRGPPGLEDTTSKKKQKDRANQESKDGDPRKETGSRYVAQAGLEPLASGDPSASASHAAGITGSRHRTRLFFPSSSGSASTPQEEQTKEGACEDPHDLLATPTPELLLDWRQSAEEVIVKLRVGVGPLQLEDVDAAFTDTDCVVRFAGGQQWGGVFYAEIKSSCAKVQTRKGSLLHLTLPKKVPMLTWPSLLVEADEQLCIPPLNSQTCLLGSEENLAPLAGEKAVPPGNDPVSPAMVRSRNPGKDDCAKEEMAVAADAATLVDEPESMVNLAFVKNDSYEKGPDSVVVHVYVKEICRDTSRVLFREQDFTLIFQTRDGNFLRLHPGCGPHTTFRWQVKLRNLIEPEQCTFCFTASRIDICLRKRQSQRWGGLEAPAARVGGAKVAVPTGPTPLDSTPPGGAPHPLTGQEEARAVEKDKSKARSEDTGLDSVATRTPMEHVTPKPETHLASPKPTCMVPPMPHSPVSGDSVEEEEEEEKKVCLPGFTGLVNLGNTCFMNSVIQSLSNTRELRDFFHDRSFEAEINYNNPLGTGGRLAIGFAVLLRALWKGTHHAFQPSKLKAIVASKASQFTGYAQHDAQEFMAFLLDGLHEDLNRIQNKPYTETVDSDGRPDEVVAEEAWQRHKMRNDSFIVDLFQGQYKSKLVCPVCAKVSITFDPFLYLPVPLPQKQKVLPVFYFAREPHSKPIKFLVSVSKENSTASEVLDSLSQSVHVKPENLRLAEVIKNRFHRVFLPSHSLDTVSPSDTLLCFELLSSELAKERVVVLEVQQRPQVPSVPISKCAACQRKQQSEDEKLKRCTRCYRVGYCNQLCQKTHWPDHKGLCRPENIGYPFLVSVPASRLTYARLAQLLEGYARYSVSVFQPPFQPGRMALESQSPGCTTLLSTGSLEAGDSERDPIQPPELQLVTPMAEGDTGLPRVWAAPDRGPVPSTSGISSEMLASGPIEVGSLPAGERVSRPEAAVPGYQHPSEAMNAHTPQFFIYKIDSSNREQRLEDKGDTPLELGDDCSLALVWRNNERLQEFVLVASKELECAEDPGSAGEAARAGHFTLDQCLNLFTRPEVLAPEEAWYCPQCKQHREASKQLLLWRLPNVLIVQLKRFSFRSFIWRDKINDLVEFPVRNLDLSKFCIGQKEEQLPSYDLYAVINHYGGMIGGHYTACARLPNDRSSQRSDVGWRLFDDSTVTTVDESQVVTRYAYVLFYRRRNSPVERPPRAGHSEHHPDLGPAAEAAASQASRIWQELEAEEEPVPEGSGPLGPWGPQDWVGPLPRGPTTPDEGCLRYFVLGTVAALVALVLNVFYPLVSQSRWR
The experiment in a line: USP19 fluorescence polarisation (FP) assay, Ubiquitin-Lys-TAMRA substrate. The class given is biochemical. The settings on record: average of at least two duplicate experiments. The method, boiled down: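 Full-length human USP19 (added at 2.5 nM) was preincubated 30 min at RT with inhibitor (serial dilutions 200 μM to 2 μM) in 50 mM HEPES pH 7.4, 150 mM NaCl, 5 mM DTT, 0.05% BSA, 0.05% CHAPS. Ubiquitin-Lys-TAMRA isopeptide substrate (added at 500 nM) started the reaction, and FP (Ex 530/Em 575 nm) was read every 15 min over 90 min. IC50 came from non-linear regression of signal normalised to no-compound control, averaged over at least two duplicate experiments.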
For orientation: Fluorescence polarisation rises when a labelled molecule tumbles more slowly, as on binding a larger partner.

As usually defined, the IC50 is the concentration that gives 50% inhibition. Consider `N[C@@H]1CCN(C(=O)N2CCC(CN3Cc4nccn4CC3=O)C3(CCCC3)C2)[C@H](c2ccccc2)C1` (stereo partly drawn) [Example 42, 7-((7-((2S,4R)-4-Amino-2-phenylpiperidine-1-carbonyl)-7-azaspiro[4.5]decan-10-yl)methyl)-7,8-dihydroimidazo[1,2-a]pyrazin-6(5H)-one], for which the IC50 is 0.01 to 0.1 µM.

Regarding `CCN[C@@H]1CCN(C(=O)N2CC[C@@H](Cn3ccc(-c4ccccc4)cc3=O)C3(CCCC3)C2)[C@H](c2ccccc2)C1` [Example 45, 1-(((R)-7-((2S,4R)-4-(Ethylamino)-2-phenylpiperidine-1-carbonyl)-7-azaspiro[4.5]decan-10-yl)methyl)-4-phenylpyridin-2(1H)-one], the IC50 was under 0.01 µM.

As for `CN[C@@H]1CCN(C(=O)N2CC[C@@H](Cn3cnc(-c4ccccc4OC)cc3=O)C3(CCCC3)C2)[C@H](c2cc(F)cc(F)c2)C1` [Example 124, 3-(((R)-7-((2S,4R)-2-(3,5-Difluorophenyl)-4-(methylamino)piperidine-1-carbonyl)-7-azaspiro[4.5]decan-10-yl)methyl)-6-(2-methoxyphenyl)pyrimidin-4(3H)-one], the IC50 was under 0.01 µM.

As for `CN[C@@H]1CCN(C(=O)N2CC[C@@H](Cn3cnc(-c4ccccc4F)cc3=O)C3(CCCC3)C2)[C@H](c2cc(F)cc(F)c2)C1` [Example 143, 3-(((R)-7-((2S,4R)-2-(3,5-Difluorophenyl)-4-(methylamino)piperidine-1-carbonyl)-7-azaspiro[4.5]decan-10-yl)methyl)-6-(2-fluorophenyl)pyrimidin-4(3H)-one], the IC50 is under 0.01 µM.

Consider `Cc1cc(C)nc(CN[C@@H]2CCN(C(=O)N3CC[C@@H](Cn4cnc(-c5ccccc5)cc4=O)C4(CCCC4)C3)[C@H](c3ccccc3)C2)n1` [Example 194, 3-(((R)-7-((2S,4R)-4-(((4,6-Dimethylpyrimidin-2-yl)methyl)amino)-2-phenylpiperidine-1-carbonyl)-7-azaspiro[4.5]decan-10-yl)methyl)-6-phenylpyrimidin-4(3H)-one], for which the IC50 is under 0.01 µM.

Turning to `CN[C@@H]1CCN(C(=O)N2CC[C@@H](Cn3ccc(-c4ccccc4OC)cc3=O)C3(CCCC3)C2)[C@H](c2ccccc2)C1` [Example 53, 4-(2-Methoxyphenyl)-1-(((R)-7-((2S,4R)-4-(methylamino)-2-phenylpiperidine-1-carbonyl)-7-azaspiro[4.5]decan-10-yl)methyl)pyridin-2(1H)-one], the IC50 is under 0.01 µM.

On to `CC1(C)CN(C(=O)N2CC[C@@H](N)C[C@H]2c2ccccc2)CCC1Cn1ccc(-c2ccccc2)cc1=O` (stereo partly drawn) [Example 21, 1-((1-((2S,4R)-4-Amino-2-phenylpiperidine-1-carbonyl)-3,3-dimethylpiperidin-4-yl)methyl)-4-phenylpyridin-2(1H)-one], for which the IC50 is under 0.01 µM.

In the case of `CN[C@@H]1CCN(C(=O)N2CC[C@@H](Cn3cnc(-c4ccccc4F)cc3=O)C3(CCCC3)C2)[C@H](c2cccc(F)c2F)C1` [Example 140, 3-(((R)-7-((2S,4R)-2-(2,3-Difluorophenyl)-4-(methylamino)piperidine-1-carbonyl)-7-azaspiro[4.5]decan-10-yl)methyl)-6-(2-fluorophenyl)pyrimidin-4(3H)-one], the IC50 is under 0.01 µM.

As to `O=C(N1CCC(Cn2cnc(-c3ccccc3)cc2=O)C2(CCCC2)C1)N1CCNC[C@H]1c1cc(F)cc(F)c1` (stereo partly drawn) [Example 11, 3-((7-((R)-2-(3,5-Difluorophenyl)piperazine-1-carbonyl)-7-azaspiro[4.5]decan-10-yl)methyl)-6-phenylpyrimidin-4(3H)-one], the IC50 was under 0.01 µM.

With `CN[C@@H]1CCN(C(=O)N2CC[C@@H](Cn3ccc(-c4ccccc4OC)cc3=O)C3(CCCC3)C2)[C@H](c2cc(F)cc(F)c2)C1` [Example 126, 1-(((R)-7-((2S,4R)-2-(3,5-Difluorophenyl)-4-(methylamino)piperidine-1-carbonyl)-7-azaspiro[4.5]decan-10-yl)methyl)-4-(2-methoxyphenyl)pyridin-2(1H)-one], the IC50 was under 0.01 µM.

As to `N[C@@H]1CCN(C(=O)N2CCC(Cn3cnc4cc(F)c(F)cc4c3=O)C3(CCCC3)C2)[C@H](c2ccccc2)C1` (stereo partly drawn) [Example 37, 3-((7-((2S,4R)-4-Amino-2-phenylpiperidine-1-carbonyl)-7-azaspiro[4.5]decan-10-yl)methyl)-6,7-difluoroquinazolin-4(3H)-one], the IC50 was under 0.01 µM.

Take `Cn1ccc(N[C@@H]2CCN(C(=O)N3CC[C@@H](Cn4cnc(-c5ccccc5)cc4=O)C4(CCCC4)C3)[C@H](c3ccccc3)C2)n1` [Example 147, 3-(((R)-7-((2S,4R)-4-((1-Methyl-1H-pyrazol-3-yl)amino)-2-phenylpiperidine-1-carbonyl)-7-azaspiro[4.5]decan-10-yl)methyl)-6-phenylpyrimidin-4(3H)-one]: the IC50 lay in the range of 0.1 to 1 µM.

For `C[C@H]1CN(C(=O)N2CC[C@@H](Cn3cnc4ccc(F)cc4c3=O)C3(CCCC3)C2)[C@H](c2cc(F)ccc2F)CO1` [Example 200, 3-(((R)-7-((2S,5R)-5-(2,5-Difluorophenyl)-2-methylmorpholine-4-carbonyl)-7-azaspiro[4.5]decan-10-yl)methyl)-6-fluoroquinazolin-4(3H)-one], the IC50 lay within 0.01 to 0.1 µM.

As for `CN[C@@H]1CCN(C(=O)N2CC[C@@H](Cn3ccc(-c4ccccc4OC)cc3=O)C3(CCCC3)C2)[C@H](c2ccc(F)cc2)C1` [Example 120, 1-(((R)-7-((2S,4R)-2-(4-Fluorophenyl)-4-(methylamino)piperidine-1-carbonyl)-7-azaspiro[4.5]decan-10-yl)methyl)-4-(2-methoxyphenyl)pyridin-2(1H)-one], the IC50 is under 0.01 µM.

Turning to `CN(C)C(=O)[C@@H]1CCN(C(=O)N2CC[C@@H](Cn3cnc(-c4ccccc4)cc3=O)C3(CCCC3)C2)[C@H](c2ccccc2)C1` [Example 177, (2S,4R)-N,N-Dimethyl-1-((R)-10-((6-oxo-4-phenylpyrimidin-1(6H)-yl)methyl)-7-azaspiro[4.5]decane-7-carbonyl)-2-phenylpiperidine-4-carboxamide], the concentration for half-maximal inhibition (IC50) lay within 1 to 20 µM.

Consider `CN[C@@H]1CCN(C(=O)N2CC[C@@H](Cn3cnc4ccc(F)cc4c3=O)C3(CCCC3)C2)[C@H](c2cc(F)ccc2F)C1` [Example 125, 3-(((R)-7-((2S,4R)-2-(2,5-Difluorophenyl)-4-(methylamino)piperidine-1-carbonyl)-7-azaspiro[4.5]decan-10-yl)methyl)-6-fluoroquinazolin-4(3H)-one], for which the IC50 was under 0.01 µM.

As for `O=C(N[C@@H]1CCN(C(=O)N2CC[C@@H](Cn3cnc4ccc(F)cc4c3=O)C3(CCCC3)C2)[C@H](c2cc(F)ccc2F)C1)C1CC1` [Example 173, N-((2S,4R)-2-(2,5-Difluorophenyl)-1-((R)-10-((6-fluoro-4-oxoquinazolin-3(4H)-yl)methyl)-7-azaspiro[4.5]decane-7-carbonyl)piperidin-4-yl)cyclopropanecarboxamide], the IC50 fell in the range of 0.01 to 0.1 µM.

For `CN[C@@H]1CCN(C(=O)N2CC[C@@H](CN3CC(c4ccccc4)=CC3=O)C3(CCCC3)C2)[C@H](c2cc(F)ccc2F)C1` [Example 178, 1-(((R)-7-((2S,4R)-2-(2,5-Difluorophenyl)-4-(methylamino)piperidine-1-carbonyl)-7-azaspiro[4.5]decan-10-yl)methyl)-4-phenyl-1,5-dihydro-2H-pyrrol-2-one], the IC50 lay within 0.01 to 0.1 µM.

Regarding `CC(C)N[C@@H]1CCN(C(=O)N2CC[C@@H](Cn3cnc(-c4ccccc4)cc3=O)C3(CCCC3)C2)[C@H](c2cc(F)ccc2F)C1` [Example 160, 3-(((R)-7-((2S,4R)-2-(2,5-Difluorophenyl)-4-(isopropylamino)piperidine-1-carbonyl)-7-azaspiro[4.5]decan-10-yl)methyl)-6-phenylpyrimidin-4(3H)-one], the IC50 was under 0.01 µM.

The values are drawn from patent US20240327382A1 (ALMAC DISCOVERY LIMITED, priority 2021, published 2024).
